Molecules are shown by their SMILES. Calls of active or inactive are those of the source.

The target of one experiment is Genome polyprotein (dengue virus type 2, UniProt P29990). The experiment can be described thus: flavivirus cap methylation enzyme inhibition – biochemical, confirmation dose response, primary screen (AID 588689). Type of experiment: functional.
In experiment [1] the target is T1, Carboxy-terminal domain RNA polymerase II polypeptide A small phosphatase 1 (Homo sapiens, UniProt Q9GZU7).
T1 sequence (Q9GZU7 whole entry): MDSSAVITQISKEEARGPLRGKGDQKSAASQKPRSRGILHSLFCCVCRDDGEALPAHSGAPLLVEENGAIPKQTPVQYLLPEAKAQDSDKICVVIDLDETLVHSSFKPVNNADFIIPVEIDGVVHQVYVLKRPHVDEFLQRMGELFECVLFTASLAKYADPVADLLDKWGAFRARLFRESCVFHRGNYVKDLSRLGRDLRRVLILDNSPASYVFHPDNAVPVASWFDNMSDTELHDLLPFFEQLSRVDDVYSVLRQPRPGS
Briefly: CTDSP1 inhibitors, concentration-response, biochemical, absorbance readout, ultra-high-throughput screen actives (AID 540297). It is filed as functional.

Experiment [2] concerns the target DNA dC->dU-editing enzyme APOBEC-3A (Homo sapiens, UniProt P31941). The experiment can be described thus: Dose Response confirmation of small molecule APOBEC3A DNA Deaminase Inhibitors via a fluorescence-based single-stranded DNA deaminase assay. [Related pubchem assays (depositor defined):AID493011, AID493024]. It is filed as functional.
The target in experiment [3] is DNA dC->dU-editing enzyme APOBEC-3G (Homo sapiens, UniProt Q9HC16). It is filed as functional.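 Also: Dose-response counterscreen measuring inhibition of APOBEC3G DNA deaminase activity, run while confirming APOBEC3A inhibitors.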
Another experiment addresses T2, Coagulation factor XII (Homo sapiens, UniProt P00748).
T2 sequence (P00748 whole entry): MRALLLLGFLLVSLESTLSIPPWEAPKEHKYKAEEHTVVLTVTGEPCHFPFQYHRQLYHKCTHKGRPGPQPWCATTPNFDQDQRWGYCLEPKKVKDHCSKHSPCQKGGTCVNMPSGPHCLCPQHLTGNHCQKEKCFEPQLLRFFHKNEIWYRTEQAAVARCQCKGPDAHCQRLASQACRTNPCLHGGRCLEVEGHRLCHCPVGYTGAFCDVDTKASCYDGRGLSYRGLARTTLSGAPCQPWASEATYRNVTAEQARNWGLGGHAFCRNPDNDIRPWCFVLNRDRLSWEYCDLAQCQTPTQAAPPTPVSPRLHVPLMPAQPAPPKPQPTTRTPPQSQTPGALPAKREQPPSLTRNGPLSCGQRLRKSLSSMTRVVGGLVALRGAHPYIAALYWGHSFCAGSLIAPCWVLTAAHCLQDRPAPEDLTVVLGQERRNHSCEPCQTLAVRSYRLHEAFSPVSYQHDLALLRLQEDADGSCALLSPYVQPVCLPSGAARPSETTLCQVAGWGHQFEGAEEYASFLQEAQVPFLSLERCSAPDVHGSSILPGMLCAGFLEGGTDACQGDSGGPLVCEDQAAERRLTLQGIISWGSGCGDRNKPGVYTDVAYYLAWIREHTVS
Type of experiment: functional.

For experiment [4], the target named is T3, Type-1 angiotensin II receptor (Homo sapiens, UniProt P30556).
T3 sequence (P30556 whole entry): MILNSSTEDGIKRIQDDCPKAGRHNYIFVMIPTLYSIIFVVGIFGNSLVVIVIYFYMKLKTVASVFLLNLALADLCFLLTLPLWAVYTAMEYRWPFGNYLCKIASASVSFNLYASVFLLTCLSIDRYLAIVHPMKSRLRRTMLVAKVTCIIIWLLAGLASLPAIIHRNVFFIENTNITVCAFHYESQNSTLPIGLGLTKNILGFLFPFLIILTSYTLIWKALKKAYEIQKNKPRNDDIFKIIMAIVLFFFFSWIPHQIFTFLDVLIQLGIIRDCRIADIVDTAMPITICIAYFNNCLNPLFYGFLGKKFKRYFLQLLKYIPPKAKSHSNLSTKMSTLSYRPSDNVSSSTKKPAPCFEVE
The experiment can be described thus: antagonism of angiotensin II type 1 receptor – cell-based, uHTS hits, selectivity assay for APJ receptor antagonist project, dose response (AID 463214).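 Also: antagonist potency against angiotensin II stimulated AT1 response.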 Type of experiment: functional.

The next experiment deals with Beta-galactosidase (Escherichia coli, UniProt Q8VNN2). The experiment can be described thus: PubChem AID 485352. It is filed as functional.
Another experiment concerns Vero. Briefly: cells. It is filed as functional. The conditions noted are these: Chlorocebus sabaeus.
For experiment [5], the target named is T4, SUMO-activating enzyme (Homo sapiens, UniProt Q9UBT2). Briefly: blockers of SAE1/SAE2–UBC9 SUMO transfer – biochemical, HTRF, uHTS, primary screen (AID 2006). Type of experiment: protein-complex assay. (In general: In TR-FRET formats the signal depends on donor and acceptor labels being close together.)
The test system of the next experiment is Streptococcus. Briefly: GAS UMAA2166 growth inhibition – luminescence, BacTiterGlo, counter-screen for streptokinase expression inhibitor project, dose response (AID 1915).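 Also: potency for reduction of bacterial viability or growth.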 Type of experiment: functional, organism-based.
The nature of experiment [6]: cells. It is filed as functional, cell-based.
In experiment [7] the test system is Streptococcus sp. 'group A'. Briefly: Streptococcus pyogenes SK(-)GAS viability under kanamycin – luminescence, BacTiterGlo, confirmation, counter-screen for streptokinase expression inhibitor project, dose response (AID 1900). It is filed as functional, organism-based.
For experiment [8], the target named is T4, SUMO-activating enzyme. The experiment can be described thus: blockers of UBC9-mediated SUMO conjugation – biochemical, AlphaScreen, SUMOylation inhibitor project, confirmation (AID 2018). It is filed as functional. (Alpha assays give light when donor and acceptor beads are brought close together.)
Experiment [9] can be described thus: cells. Type of experiment: functional, cell-based. This is another data set of the same source.
The next experiment relates to INS1. The experiment can be described thus: INS-1E survival protection against cytokine death – cell-based, luminescence, retest, dose response (AID 449756).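 Also: cell death triggered by IL-1 beta plus TNF-alpha plus IFN-gamma mixture; protective hits raise ATP signal compared with cytokine alone wells.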 The conditions noted are these: Rattus norvegicus. Type of experiment: functional.

T4 sequence (Q9UBE0 whole entry): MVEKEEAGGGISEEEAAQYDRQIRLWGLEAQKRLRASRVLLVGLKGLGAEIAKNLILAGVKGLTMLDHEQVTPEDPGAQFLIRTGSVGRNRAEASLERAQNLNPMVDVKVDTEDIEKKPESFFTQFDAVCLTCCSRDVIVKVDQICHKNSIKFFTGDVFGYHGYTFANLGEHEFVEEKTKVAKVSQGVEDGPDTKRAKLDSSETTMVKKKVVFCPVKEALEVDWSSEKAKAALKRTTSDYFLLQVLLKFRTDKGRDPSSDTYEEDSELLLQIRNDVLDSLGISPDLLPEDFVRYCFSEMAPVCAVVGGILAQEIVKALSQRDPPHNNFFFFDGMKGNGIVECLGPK
T4 sequence (Q9UBT2 whole entry): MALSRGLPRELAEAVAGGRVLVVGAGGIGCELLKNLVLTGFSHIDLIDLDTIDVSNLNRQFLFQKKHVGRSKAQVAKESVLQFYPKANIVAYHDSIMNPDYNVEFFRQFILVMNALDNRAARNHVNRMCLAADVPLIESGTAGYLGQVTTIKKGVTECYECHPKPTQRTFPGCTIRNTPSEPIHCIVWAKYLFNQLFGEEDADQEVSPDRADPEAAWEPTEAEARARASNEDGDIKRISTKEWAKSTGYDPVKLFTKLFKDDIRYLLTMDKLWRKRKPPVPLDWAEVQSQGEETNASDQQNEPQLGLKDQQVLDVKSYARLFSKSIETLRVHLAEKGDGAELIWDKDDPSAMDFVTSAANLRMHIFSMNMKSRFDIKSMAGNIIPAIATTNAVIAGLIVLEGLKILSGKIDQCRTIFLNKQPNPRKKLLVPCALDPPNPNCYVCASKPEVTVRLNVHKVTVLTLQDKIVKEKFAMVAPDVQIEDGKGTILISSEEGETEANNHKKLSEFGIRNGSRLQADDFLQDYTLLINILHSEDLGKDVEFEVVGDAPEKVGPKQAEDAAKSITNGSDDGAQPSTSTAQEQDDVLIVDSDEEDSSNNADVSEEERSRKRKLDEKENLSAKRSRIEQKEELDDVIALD
Sequence of Beta-galactosidase (Q8VNN2 whole entry): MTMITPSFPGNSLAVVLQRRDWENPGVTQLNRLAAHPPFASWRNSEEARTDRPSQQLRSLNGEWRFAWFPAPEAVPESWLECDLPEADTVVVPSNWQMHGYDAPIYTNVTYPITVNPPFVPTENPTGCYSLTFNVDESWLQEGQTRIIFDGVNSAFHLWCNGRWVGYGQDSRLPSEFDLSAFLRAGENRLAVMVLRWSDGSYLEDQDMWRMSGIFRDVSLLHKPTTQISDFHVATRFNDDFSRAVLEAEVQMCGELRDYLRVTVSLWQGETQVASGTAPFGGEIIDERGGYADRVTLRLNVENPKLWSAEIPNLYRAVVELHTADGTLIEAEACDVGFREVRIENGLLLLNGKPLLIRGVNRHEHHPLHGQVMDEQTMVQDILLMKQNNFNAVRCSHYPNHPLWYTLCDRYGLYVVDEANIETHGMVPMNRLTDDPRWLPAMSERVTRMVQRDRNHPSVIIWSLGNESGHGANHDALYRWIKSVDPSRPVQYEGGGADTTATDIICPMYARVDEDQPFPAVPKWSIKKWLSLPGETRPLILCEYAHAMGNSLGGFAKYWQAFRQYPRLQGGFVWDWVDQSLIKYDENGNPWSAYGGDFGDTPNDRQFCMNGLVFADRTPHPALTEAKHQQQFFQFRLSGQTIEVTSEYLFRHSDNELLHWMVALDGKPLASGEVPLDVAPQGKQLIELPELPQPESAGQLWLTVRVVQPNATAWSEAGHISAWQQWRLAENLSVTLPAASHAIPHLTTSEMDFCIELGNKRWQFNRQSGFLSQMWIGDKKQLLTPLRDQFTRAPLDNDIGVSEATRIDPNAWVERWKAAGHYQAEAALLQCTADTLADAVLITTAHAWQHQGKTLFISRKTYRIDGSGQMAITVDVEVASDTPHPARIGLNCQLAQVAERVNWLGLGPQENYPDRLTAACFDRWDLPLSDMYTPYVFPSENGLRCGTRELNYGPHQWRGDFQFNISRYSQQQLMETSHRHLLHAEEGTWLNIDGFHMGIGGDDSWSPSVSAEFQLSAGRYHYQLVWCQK
Sequence of DNA dC->dU-editing enzyme APOBEC-3A (P31941 whole entry): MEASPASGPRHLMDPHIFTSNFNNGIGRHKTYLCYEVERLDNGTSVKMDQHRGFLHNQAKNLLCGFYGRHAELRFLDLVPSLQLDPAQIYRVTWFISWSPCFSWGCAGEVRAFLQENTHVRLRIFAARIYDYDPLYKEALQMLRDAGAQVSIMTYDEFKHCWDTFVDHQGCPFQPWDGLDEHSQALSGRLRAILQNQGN
Sequence of Genome polyprotein (P29990 2492-3391 limits assumed): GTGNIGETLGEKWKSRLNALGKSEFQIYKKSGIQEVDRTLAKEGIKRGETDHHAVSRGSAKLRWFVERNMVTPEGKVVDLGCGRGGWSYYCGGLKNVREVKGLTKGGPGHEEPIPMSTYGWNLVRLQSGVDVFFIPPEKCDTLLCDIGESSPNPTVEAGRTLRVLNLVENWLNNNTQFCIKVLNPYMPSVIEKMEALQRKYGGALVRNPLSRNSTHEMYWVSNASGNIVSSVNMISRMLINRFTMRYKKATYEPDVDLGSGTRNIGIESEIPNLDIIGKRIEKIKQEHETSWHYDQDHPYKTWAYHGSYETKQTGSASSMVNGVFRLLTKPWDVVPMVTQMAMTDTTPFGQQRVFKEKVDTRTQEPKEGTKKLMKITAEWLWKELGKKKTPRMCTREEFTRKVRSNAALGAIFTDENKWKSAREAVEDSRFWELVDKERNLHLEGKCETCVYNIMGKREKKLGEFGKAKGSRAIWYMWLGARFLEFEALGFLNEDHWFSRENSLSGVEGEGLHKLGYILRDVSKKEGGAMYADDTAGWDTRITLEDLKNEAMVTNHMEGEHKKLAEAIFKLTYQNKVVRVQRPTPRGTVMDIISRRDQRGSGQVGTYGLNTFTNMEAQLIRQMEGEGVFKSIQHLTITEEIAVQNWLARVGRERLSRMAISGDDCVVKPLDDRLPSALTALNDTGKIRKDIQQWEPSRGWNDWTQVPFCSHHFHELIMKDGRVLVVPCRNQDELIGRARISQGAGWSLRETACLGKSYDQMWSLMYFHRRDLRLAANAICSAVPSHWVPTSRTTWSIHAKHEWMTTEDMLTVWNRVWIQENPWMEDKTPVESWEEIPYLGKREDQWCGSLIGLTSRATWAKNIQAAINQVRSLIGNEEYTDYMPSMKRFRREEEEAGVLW
Sequence of DNA dC->dU-editing enzyme APOBEC-3G (Q9HC16 whole entry): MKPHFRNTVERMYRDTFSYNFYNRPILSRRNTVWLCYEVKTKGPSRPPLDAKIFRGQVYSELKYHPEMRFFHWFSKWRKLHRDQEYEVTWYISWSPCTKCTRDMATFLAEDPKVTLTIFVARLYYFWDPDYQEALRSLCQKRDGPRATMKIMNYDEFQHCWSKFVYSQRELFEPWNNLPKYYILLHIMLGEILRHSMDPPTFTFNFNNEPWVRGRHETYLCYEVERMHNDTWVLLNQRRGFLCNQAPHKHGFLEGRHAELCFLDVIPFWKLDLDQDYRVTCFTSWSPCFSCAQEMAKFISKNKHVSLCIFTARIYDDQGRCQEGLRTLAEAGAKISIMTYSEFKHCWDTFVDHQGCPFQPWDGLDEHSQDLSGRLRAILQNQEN

For orientation: IC50 means the concentration that inhibits the measured activity by half. `CC(C)CSC1=NSC2=NC(=O)/C(=C\c3ccccc3)C(=N)N12`: the IC50 at Genome polyprotein was 51.8 µM (active).
On to `CC[N+]1(CC)CC2CCC(C)(C1)C2(C)C` (configuration not stated), for which the IC50 in [1] was 12.1 µM (active); in [2], 2.28 µM (active); in experiment [3], 3.3 µM (active).
In general, EC50 refers to the concentration that produces a half-maximal response. For the compound `CC(C)c1ccc(O)c(NC(=S)NC(=O)c2cccnc2)c1`, the values for the IC50 (on Coagulation factor XII; in experiment [4]) were > 50 µM (inactive) and 23.2 µM (not active), respectively. Further, the EC50 at Beta-galactosidase is > 40 µM (inactive).
The term CC50 denotes the concentration that lowers cell viability or growth by half. On to `C=C1C(=O)OC2CC3(C)OC3CCC(C)=CC(OC(C)=O)C12` (configuration not stated), for which the half-maximal cytotoxic concentration (CC50) in the experiment with Vero was 23.8 µM (active).
One may read the AC50 as the concentration at which the activity in the assay is half-maximal. In the case of `O=C(N/N=C/c1cc(Br)cc(Br)c1O)c1ccncc1`, the half-maximal inhibitory concentration (IC50) at SUMO-activating enzyme [5] was 8.52 µM (active); at SUMO-activating enzyme [8], 5.03 µM (active). Further, the EC50 with Streptococcus was 2.5 µM (active); in “cells [6]”, 24.8 µM (active); in experiment [7], 0.807 µM (active); in “cells [9]” it was > 350 µM (not active). Further, in the experiment on INS1, the AC50 was 2.64 µM (active).
With `OCCN1C[C@H](O)[C@@H](O)[C@H](O)[C@H]1CO` [MIGLITOL], the IC50 in experiment [4] is listed as > 40 µM (not active). Further, the EC50 on Beta-galactosidase is > 40 µM (inactive).

These data come from ChEMBL document CHEMBL1201862, “PubChem BioAssay data set” (2004).
